The text below walks through data of US20250115563A1, “MODULATORS OF THE INTEGRATED STRESS PATHWAY” (Calico Life Sciences LLC, priority 2017, published 2025).

Broadly, the EC50 is the concentration giving half of the maximal effect.

The experiment has as its system HEK293T cells carrying the ATF4 luciferase reporter. As to the kind of experiment: ATF4-Luc assay (in vitro model of VWMD). The class given is cell-based. The settings on record: Homo sapiens, HEK-293T; HEK293T cells with ATF4 5'-UTR firefly luciferase reporter; 1 μg/mL tunicamycin; 7 hours; One Glo luminescence. The protocol:
In order to test exemplary compounds of the invention in a cellular context, a stable VWMD cell line was first constructed. The ATF4 reporter was prepared by fusing the human full-length ATF4 5′-UTR (NCBI Accession No. BC022088.2) in front of the firefly luciferase (FLuc) coding sequence lacking the initiator methionine as described in Sidrauski et al (eLife 2013). The construct was used to produce recombinant retroviruses using standard methods and the resulting viral supernatant was used to transduce HEK293T cells, which were then subsequently selected with puromycin to generate a stable cell line.
HEK293T cells carrying the ATF4 luciferase reporter were plated on polylysine coated 384-well plates (Greiner Bio-one) at 30,000 cells per well. Cells were treated the next day with 1 μg/mL tunicamycin and 200 nM of a compound of Formula (I) for 7 hours. Luminescence was measured using One Glo (Promega) as specified by the manufacturer. Cells were maintained in DMEM with L-glutamine supplemented with 10% heat-inactivated FBS (Gibco) and Antibiotic-Antimycotic solution (Gibco).
Table 2 below summarizes the EC50 data obtained using the ATF4-Luc assay for exemplary compounds of the invention.
(In general: A reporter such as luciferase makes a cellular process visible.)

On to `O=C(COc1ccc(Cl)c(F)c1)NC12CCC(c3nnc(Oc4ccc(Cl)c(F)c4)o3)(CC1)C(O)C2` (stereo not drawn) [Compound 170, 2-(4-chloro-3-fluorophenoxy)-N-{4-[5-(4-chloro-3-fluorophenoxy)-1,3,4-oxadiazol-2-yl]-3-hydroxybicyclo[2.2.2]octan-1-yl}acetamide], for which the half-maximal effective concentration (EC50) was less than 50 nM. With `O=C(COc1ccc(Cl)c(F)c1)NC12CCC(c3nnc(Oc4ccc(Cl)c(F)c4)o3)(CC1)[C@H](O)C2` [Compound 171, 2-(4-chloro-3-fluorophenoxy)-N-{(3R)-4-[5-(4-chloro-3-fluorophenoxy)-1,3,4-oxadiazol-2-yl]-3-hydroxybicyclo[2.2.2]octan-1-yl}acetamide], the EC50 was less than 50 nM. For `O=C(COc1ccc(Cl)c(F)c1)NC12CCC(c3nnc(Oc4ccc(Cl)c(F)c4)o3)(CC1)[C@@H](O)C2` [Compound 172, 2-(4-chloro-3-fluorophenoxy)-N-{(3S)-4-[5-(4-chloro-3-fluorophenoxy)-1,3,4-oxadiazol-2-yl]-3-hydroxybicyclo[2.2.2]octan-1-yl}acetamide], the EC50 is less than 50 nM.
